Read-outs that look alike come from different tables or passages of the source.
What was measured:
human GLP-1 receptor = molecular target: T1, human GLP-1 receptor (Homo sapiens, UniProt P43220); experiment: cAMP activity test (cAMP dynamic HTRF kit) in CHO-K1/GLP-1 receptor-expressing cells; format: cell-based
T1 construct: host or cells: CHO-K1
Description: The next day, the medium was removed, and a 50 uL of HBSS medium containing 0.1% BSA, 0.5 mM IBMX, and 5 mM HEPES was added to each well. […] The cAMP activity was measured according to the manufacturer's instructions using the cAMP dynamic HTRF kit (Cisbio, 62AM4PEC). After incubation, the medium was discarded, and the cells were lysed. cAMP-d2 and anti-cAMP cryptate conjugate were added thereto and reacted for 3 hours. […] Intracellular cAMP competes with cAMP-d2 for anti-cAMP cryptate, and the measured signal of fluorescence resonance energy transfer (FRET) is inversely proportional to intracellular cAMP.

hERG = molecular target: T2, hERG (Homo sapiens, UniProt Q12809); experiment: hERG inhibition test (Predictor hERG Fluorescence Polarization assay kit); format: binding; settings: probe kit Tracer (fluorescent hERG ligand), hERG % inhibition at 10 uM, relative to E-4031 and solvent control
T2 construct: purchased Invitrogen PV5365
T2 sequence (Q12809 whole entry): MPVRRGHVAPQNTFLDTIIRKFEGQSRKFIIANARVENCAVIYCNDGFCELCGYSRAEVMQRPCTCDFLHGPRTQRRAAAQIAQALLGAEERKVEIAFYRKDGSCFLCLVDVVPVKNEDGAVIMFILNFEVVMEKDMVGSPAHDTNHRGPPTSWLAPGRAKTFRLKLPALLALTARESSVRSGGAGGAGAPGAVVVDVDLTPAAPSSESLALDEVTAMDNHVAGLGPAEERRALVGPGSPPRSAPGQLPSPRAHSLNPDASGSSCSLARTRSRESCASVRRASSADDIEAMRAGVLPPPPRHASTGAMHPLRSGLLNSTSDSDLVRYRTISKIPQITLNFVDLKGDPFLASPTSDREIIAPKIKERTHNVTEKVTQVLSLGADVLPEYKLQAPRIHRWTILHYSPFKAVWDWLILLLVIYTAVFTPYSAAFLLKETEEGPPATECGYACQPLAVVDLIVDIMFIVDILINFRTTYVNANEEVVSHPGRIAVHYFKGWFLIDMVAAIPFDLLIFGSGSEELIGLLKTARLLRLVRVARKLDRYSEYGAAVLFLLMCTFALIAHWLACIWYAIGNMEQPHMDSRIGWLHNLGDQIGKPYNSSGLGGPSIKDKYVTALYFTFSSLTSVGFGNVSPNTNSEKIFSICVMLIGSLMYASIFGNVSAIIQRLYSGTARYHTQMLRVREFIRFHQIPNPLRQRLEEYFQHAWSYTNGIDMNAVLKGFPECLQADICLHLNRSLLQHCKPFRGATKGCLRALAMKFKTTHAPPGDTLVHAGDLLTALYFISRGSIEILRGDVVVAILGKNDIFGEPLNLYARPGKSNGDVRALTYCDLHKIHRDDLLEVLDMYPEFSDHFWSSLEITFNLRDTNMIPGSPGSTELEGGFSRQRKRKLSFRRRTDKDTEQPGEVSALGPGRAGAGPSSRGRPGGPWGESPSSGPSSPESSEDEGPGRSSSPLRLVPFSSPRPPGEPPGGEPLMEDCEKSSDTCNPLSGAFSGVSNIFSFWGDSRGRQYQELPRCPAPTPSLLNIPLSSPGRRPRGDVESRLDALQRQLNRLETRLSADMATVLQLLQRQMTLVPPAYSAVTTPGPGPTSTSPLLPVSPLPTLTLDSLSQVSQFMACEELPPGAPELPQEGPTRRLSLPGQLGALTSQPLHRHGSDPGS
Description: To measure the hERG (Human ether-a-go-go-related gene) channel inhibition rate of the compound according to the present invention, the following test was performed using a Predictor hERG Fluorescence Polarization assay kit (Invitrogen, PV5365).
Specifically, a test substance was dissolved in DMSO to prepare a 50 mM solution. A 4 mM solution was prepared by diluting the 50 mM solution with DMSO in a U bottom 96-well plate (SPL, 34096), and was then diluted 100-fold with a test buffer to prepare a 40 uM (4×) solution. The positive control E-4031 (3 mM) provided in the kit was diluted 25-fold with a test buffer to prepare a 120 uM solution) 5 uL of the diluted test substance solution was dispensed into a 384-well assay plate (corning, 3677). hERG Membrane (2×) and Tracer (4×) provided in the kit were respectively added at 10 uL and 5 uL, and then subjected to the reaction at room temperature for 2.5 hours. After completion of the reaction, fluorescence polarization (mP) was measured with a Multimode Plate Reader (Perkin-Elmer, Envision) (excitation wavelength of 531 nm, and emission wavelength 579 nm). The value of the percent inhibitory activity (% inhibition) at 10 uM of each test substance was calculated by the following equation, and the results are shown in Table 2: (% inhibition)=100−{(mP of the compound according to the present invention−E-4031 mP)/(mP of the solvent control−E-4031 mP)}×100

[1] = cAMP activity, CHO-K1/GLP-1 receptor-expressing cells, read-out: EC50

T1 sequence (P43220 24-463): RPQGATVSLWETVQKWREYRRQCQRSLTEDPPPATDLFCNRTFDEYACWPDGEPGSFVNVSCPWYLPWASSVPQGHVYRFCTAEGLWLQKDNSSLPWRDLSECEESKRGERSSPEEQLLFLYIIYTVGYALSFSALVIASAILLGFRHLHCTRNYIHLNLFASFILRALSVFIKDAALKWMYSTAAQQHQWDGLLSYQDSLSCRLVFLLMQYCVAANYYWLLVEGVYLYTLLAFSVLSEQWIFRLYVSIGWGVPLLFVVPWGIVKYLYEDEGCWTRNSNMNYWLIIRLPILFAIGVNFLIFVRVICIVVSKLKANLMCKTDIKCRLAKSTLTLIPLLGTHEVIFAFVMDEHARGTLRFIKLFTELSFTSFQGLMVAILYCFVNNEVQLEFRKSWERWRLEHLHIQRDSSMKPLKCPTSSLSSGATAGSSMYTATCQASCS

SMILES	EC50 (human GLP-1 receptor; [1]) [nM]	EC50 (human GLP-1 receptor) [nM]	inhibition at 2.5 h, 10 µM (hERG) [%]
O=C(O)c1ccc2nc(Cn3ccc(-c4cccc(OCc5ccc(Cl)cc5F)n4)cc3=O)n(C[C@@H]3CCCO3)c2c1 [Example 108, (S)-2-((4-(6-(4-chloro-2-fluorobenzyloxy)pyridin-2-yl)-2-oxopyridin-1(2H)-yl)methyl)-1-((tetrahydrofuran-2-yl)methyl)-1H-benzo[d]imidazole-6-carboxylic acid]	130		4
COCCn1c(Cc2ccc(-c3cccc(COc4ccc(Cl)cc4F)n3)cc2[N+](=O)[O-])nc2ccc(C(=O)O)cc21 [Example 7, 2-(4-(6-((4-chloro-2-fluorophenoxy)methyl)pyridin-2-yl)-2-nitrobenzyl)-1-(2-methoxyethyl)-1H-benzo[d]imidazole-6-carboxylic acid]	2000		1.63
COCCn1c(Cc2ccc(-c3cccc(OCc4ccc(Cl)cc4F)n3)cc2[N+](=O)[O-])nc2ccc(C(=O)O)cc21 [Example 5, 2-(4-(6-(4-chloro-2-fluorobenzyloxy)pyridin-2-yl)-2-nitrobenzyl)-1-(2-methoxyethyl)-1H-benzo[d]imidazole-6-carboxylic acid]	620		2.74
N#Cc1ccc(COc2cc(-c3ccc(Cc4nc5ccc(C(=O)O)cc5n4CC4CCCO4)c(F)c3)ccc2F)c(F)c1 (centres unmarked) [Example 96, 2-((3′-(4-cyano-2-fluorobenzyloxy)-3,4′-difluorobiphenyl-4-yl)methyl)-1-((tetrahydrofuran-2-yl)methyl)-1H-benzo[d]imidazole-6-carboxylic acid]	830		5.19
O=C(O)c1ccc2nc(Cn3cc(-c4cccc(OCc5ccc(Cl)cc5F)n4)cn3)n(C[C@@H]3CCO3)c2c1 [Example 131, (S)-2-((4-(6-((4-chloro-2-fluorobenzyl)oxy)pyridin-2-yl)-1H-pyrazol-1-yl)methyl)-1-(oxetan-2-ylmethyl)-1H-benzo[d]imidazole-6-carboxylic acid]	1600		-0.97
COCCn1c(Cc2ccc(-c3cccc(OCc4ccc(C#N)cc4F)n3)c(F)c2)nc2ccc(C(=O)O)cc21 [Example 38, 2-(4-(6-(4-cyano-2-fluorobenzyloxy)pyridin-2-yl)-3-fluorobenzyl)-1-(2-methoxyethyl)-1H-benzo[d]imidazole-6-carboxylic acid]		140	9.5
O=C(O)c1ccc2nc(Cc3ccc(-c4cccc(COc5ccc(Cl)cc5F)n4)cc3F)n(C[C@H]3CCCO3)c2c1 [Example 45, (R)-2-(4-(6-((4-chloro-2-fluorophenoxy)methyl)pyridin-2-yl)-2-fluorobenzyl)-1-((tetrahydrofuran-2-yl)methyl)-1H-benzo[d]imidazole-6-carboxylic acid]	3700		27.7
Cc1cc(Cc2nc3ccc(C(=O)O)cc3n2Cc2ccco2)ccc1-c1cccc(OCc2ccc(C#N)cc2F)c1 [Example 29, 2-((3′-(4-cyano-2-fluorobenzyloxy)-2-methylbiphenyl-4-yl)methyl)-1-(furan-2-ylmethyl)-1H-benzo[d]imidazole-6-carboxylic acid]	900		-0.75
COc1cccc(COc2cccc(-c3ccc(Cc4nc5ccc(C(=O)O)cc5n4CC4CCCO4)c(F)c3)n2)c1 (centres unmarked) [Example 81, 2-(2-fluoro-4-(6-(3-methoxybenzyloxy)pyridin-2-yl)benzyl)-1-((tetrahydrofuran-2-yl)methyl)-1H-benzo[d]imidazole-6-carboxylic acid]	210		-43.5
O=C(O)c1ccc2nc(Cc3ccc(-c4cccc(OCc5c(F)cccc5Cl)n4)c(F)c3)n(CC3CCCO3)c2c1 (centres unmarked) [Example 101, 2-(4-(6-(2-chloro-6-fluorobenzyloxy)pyridin-2-yl)-3-fluorobenzyl)-1-((tetrahydrofuran-2-yl)methyl)-1H-benzo[d]imidazole-6-carboxylic acid]	320		-2.37

More lines, main results first:

EC50 (human GLP-1 receptor; [1]) [nM]	EC50 (human GLP-1 receptor) [nM]	SMILES	inhibition at 2.5 h, 10 µM (hERG) [%]
9		O=C(O)c1ccc2nc(Cc3ccc(-c4cccc(OCc5ccc(Cl)cc5F)n4)c(F)c3)n(Cc3cnco3)c2c1 [Example 35, 2-(4-(6-(4-chloro-2-fluorobenzyloxy)pyridin-2-yl)-3-fluorobenzyl)-1-(oxazol-5-ylmethyl)-1H-benzo[d]imidazole-6-carboxylic acid]	-3.82
4		O=C(O)c1ccc2nc(Cc3c(F)cc(-c4cccc(OCc5ccc(Cl)cc5F)n4)cc3F)n(C[C@@H]3CCO3)c2c1 [Example 84, (S)-2-(4-(6-(4-chloro-2-fluorobenzyloxy)pyridin-2-yl)-2,6-difluorobenzyl)-1-(oxetan-2-ylmethyl)-1H-benzo[d]imidazole-6-carboxylic acid]	-1.15
39		COCCn1c(Cc2ccc(-c3cccc(OCc4ccc(Cl)cc4F)n3)cc2C)nc2ccc(C(=O)O)cc21 [Example 53, 2-(4-(6-(4-chloro-2-fluorobenzyloxy)pyridin-2-yl)-2-methylbenzyl)-1-(2-methoxyethyl)-1H-benzo[d]imidazole-6-carboxylic acid]	18.7
< 3.2		O=C(O)c1ccc2nc(Cc3ccc(-c4cccc(OCc5ccc(Cl)cc5F)n4)c(F)c3)n(C[C@@H]3CCCO3)c2c1 [Example 60, (S)-2-(4-(6-((4-chloro-2-fluorobenzyl)oxy)pyridin-2-yl)-3-fluorobenzyl)-1-((tetrahydrofuran-2-yl)methyl)-1H-benzo[d]imidazole-6-carboxylic acid]	-5.42
16		N#Cc1ccc(COc2cccc(-c3ccc(Cc4nc5ccc(C(=O)O)cc5n4CC4CCCO4)c(F)c3)n2)c(F)c1 (centres unmarked) [Example 15, 2-(4-(6-(4-cyano-2-fluorobenzyloxy)pyridin-2-yl)-2-fluorobenzyl)-1-((tetrahydrofuran-2-yl)methyl)-1H-benzo[d]imidazole-6-carboxylic acid]	1.67
< 3.2		N#Cc1ccc(COc2cccc(-c3cc(F)c(Cc4nc5ccc(C(=O)O)cc5n4C[C@@H]4CCO4)cc3F)n2)c(F)c1 [Example 115, (S)-2-(4-(6-((4-cyano-2-fluorobenzyl)oxy)pyridin-2-yl)-2,5-difluorobenzyl)-1-(oxetan-2-ylmethyl)-1H-benzo[d]imidazole-6-carboxylic acid]	-2.45
6.5		O=C(O)c1ccc2nc(Cc3ccc(-c4cccc(OCc5ccc(Cl)cc5F)n4)c(F)c3)n(CC3CCCO3)c2c1 (centres unmarked) [Example 11, 2-(4-(6-(4-chloro-2-fluorobenzyloxy)pyridin-2-yl)-3-fluorobenzyl)-1-((tetrahydrofuran-2-yl)methyl)-1H-benzo[d]imidazole-6-carboxylic acid]	-1.31
43		COCCn1c(Cc2ccc(-c3cccc(OCc4ccc(C#N)cc4F)n3)cc2F)nc2ccc(C(=O)O)cc21 [Example 25, 2-(4-(6-(4-cyano-2-fluorobenzyloxy)pyridin-2-yl)-2-fluorobenzyl)-1-(2-methoxyethyl)-1H-benzo[d]imidazole-6-carboxylic acid]	18.9
110		COCCn1c(Cc2ccc(-c3cccc(OCc4ccc(C#N)cc4F)n3)cc2C)nc2ccc(C(=O)O)cc21 [Example 54, 2-(4-(6-(4-cyano-2-fluorobenzyloxy)pyridin-2-yl)-2-methylbenzyl)-1-(2-methoxyethyl)-1H-benzo[d]imidazole-6-carboxylic acid]	36.5
72		O=C(O)c1ccc2nc(Cc3ccc(-c4cccc(OCc5ccc(Cl)cc5F)n4)cc3F)n(CCF)c2c1 [Example 43, 2-(4-(6-(4-chloro-2-fluorobenzyloxy)pyridin-2-yl)-2-fluorobenzyl)-1-(2-fluoroethyl)-1H-benzo[d]imidazole-6-carboxylic acid]	-2.26
4		O=C(O)c1ccc2nc(Cc3ccc(-c4cccc(OCc5ccc(Cl)cc5F)n4)c(F)c3F)n(C[C@@H]3CCO3)c2c1 [Example 82, (S)-2-(4-(6-(4-chloro-2-fluorobenzyloxy)pyridin-2-yl)-2,3-difluorobenzyl)-1-(oxetan-2-ylmethyl)-1H-benzo[d]imidazole-6-carboxylic acid]	7.24
32		COCCn1c(Cc2ccc(-c3cccc(OCc4ccc(Cl)cc4F)n3)cc2F)nc2ccc(C(=O)O)cc21 [Example 3, 2-(4-(6-(4-chloro-2-fluorobenzyloxy)pyridin-2-yl)-2-fluorobenzyl)-1-(2-methoxyethyl)-1H-benzo[d]imidazole-6-carboxylic acid]	8.39
